Values quoted from earlier work, collected in patent publication US12268679B1 (priority 2021, dated 2025).

Experiments:
[1] = animal studies, systemic administration, Hirao et al. 2008
human delta receptor = human delta receptor (Homo sapiens, UniProt P41143); conditions: Ferrari et al. 2017
Sequence of human delta receptor (P41143 whole entry): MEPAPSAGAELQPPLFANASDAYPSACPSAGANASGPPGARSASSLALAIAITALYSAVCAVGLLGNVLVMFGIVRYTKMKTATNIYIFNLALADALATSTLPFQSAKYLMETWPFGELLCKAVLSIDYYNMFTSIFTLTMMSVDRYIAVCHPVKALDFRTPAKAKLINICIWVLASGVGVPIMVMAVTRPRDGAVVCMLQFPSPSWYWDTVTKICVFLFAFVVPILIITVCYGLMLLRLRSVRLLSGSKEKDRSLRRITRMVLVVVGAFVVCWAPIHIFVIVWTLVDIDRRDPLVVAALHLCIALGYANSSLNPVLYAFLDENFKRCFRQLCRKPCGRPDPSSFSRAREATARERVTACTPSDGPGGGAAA

Compound: CC1(N2CCC(n3c([C@@H]4CCCNC4)nc4ccccc43)CC2)CCCCCCC1 [MCOPPB, 1-[1-(1-methylcyclooctyl)-4-piperidinyl]-2-[(3R)-3-piperidinyl]-1H-benzimidazole]
- inhibition of memory or motor function [1]: no inhibition of memory or motor function
- sedative side effects ([1]; appear only at much higher doses than the effective anxiolytic dose range): only slight sedative side effects
- activation of human delta receptor (human delta receptor): only a small amount
